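Briefly, cells in 96-well plates were exposed to five compound concentrations for 48 h, and endpoints were estimated by linear interpolation. Abbreviation: GI50, concentration required for 50% inhibition of growth.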 Active and inactive are the calls of the source. Rule as the data show it: active = GI50 up to about 1.1 µM and inactive = higher.
How the values were obtained:
Assay in all cases: growth of human tumour cells (NCI), 48 h
[1] = tested on: ACHN
[2] = tested on: UO-31
[3] = tested on: OVCAR-8
[4] = tested on: SF-539
[5] = tested on: COLO 205
[6] = tested on: LOX IMVI
[7] = tested on: SNB-75
[8] = tested on: NCI-H226
[9] = tested on: CAKI-1
[10] = tested on: HCT-116
[11] = tested on: NCI-H23
[12] = tested on: EKVX
[13] = tested on: HCC 2998
[14] = tested on: NCI-H460
[15] = tested on: NCI-H522
[16] = tested on: HOP-92

Measured: GI50

CCC(O)(c1ccc(OC)cc1)C(c1ccc(OCc2ccccc2)cc1)c1ccc(OCc2ccccc2)cc1 (stereo not given)
inactive: [1] > 100 µM | [2] > 100 µM | [3] > 100 µM | [4] > 100 µM | [5] > 100 µM | [6] > 100 µM | [7] > 100 µM | [8] > 100 µM | [9] > 100 µM | [10] > 100 µM | [11] > 100 µM | [12] > 100 µM | [13] > 100 µM | [14] > 100 µM | [15] > 100 µM | [16] > 100 µM

CC1=Nc2c(ccc3c2C(=O)c2ccccc2C3=O)NC(c2ccncc2)C1 (stereo not given)
inactive: [1] 6.75 µM | [2] 4.72 µM | [3] 8.55 µM | [4] > 10 µM | [5] > 10 µM | [6] 34.8 µM | [7] 5.96 µM | [8] > 10 µM | [9] 7.98 µM | [10] 41.5 µM | [11] > 10 µM | [12] > 10 µM | [13] > 10 µM | [14] > 10 µM | [15] 6.82 µM | [16] > 10 µM

O=C(N/C(=C\c1cccc([N+](=O)[O-])c1)c1nc2c(O)nc(S)nc2[nH]1)c1ccccc1
inactive: [1] > 100 µM | [2] 24.5 µM | [3] > 100 µM | [4] > 100 µM | [5] > 100 µM | [6] > 100 µM | [7] > 100 µM | [8] > 100 µM | [9] > 100 µM | [10] > 100 µM | [11] > 100 µM | [12] > 100 µM | [13] > 100 µM | [14] > 100 µM | [15] 66.8 µM | [16] > 100 µM

COC1C=COC2(C)Oc3c(C)c(O)c4c(O)c(c(/C=N/N5CCN(N)CC5)c(O)c4c3C2=O)NC(=O)C(C)=CC=CC(C)C(O)C(C)C(O)C(C)C(OC(C)=O)C1C (stereo not given)
inactive: [1] > 100 µM | [2] 41.7 µM | [3] 88.3 µM | [4] > 100 µM | [5] 37.8 µM | [6] 69 µM | [7] 34.7 µM | [8] > 100 µM | [9] > 100 µM | [10] 30.7 µM | [11] 31.9 µM | [12] > 100 µM | [13] > 100 µM | [15] 34 µM | [16] 65.6 µM

OCC(O)COc1c(Cl)cc(Cl)cc1Cl (stereo not given)
inactive: [1] > 100 µM | [2] > 100 µM | [3] > 100 µM | [4] > 100 µM | [5] > 68.7 µM | [6] > 41.3 µM | [7] > 100 µM | [8] > 100 µM | [9] > 100 µM | [10] > 74.3 µM | [11] > 57.4 µM | [12] > 100 µM | [13] > 100 µM | [14] > 100 µM | [15] > 100 µM | [16] > 100 µM

CCCCN/C(=N\C#N)N(Cc1ccccc1)Cc1ccccc1
inactive: [1] 29.7 µM | [2] 20.7 µM | [3] 37 µM | [4] 22.2 µM | [5] 18.4 µM | [6] 15.5 µM | [7] 31.5 µM | [8] 41.7 µM | [9] 29.1 µM | [10] 20.8 µM | [11] 24.6 µM | [12] 28.2 µM | [13] 11.9 µM | [14] 58.5 µM | [15] 15 µM | [16] 17.6 µM

COc1cc2c[n+](C)c3c4cc(OC)c(OC(C)C)cc4ccc3c2cc1OC
inactive: [1] > 100 µM | [2] > 100 µM | [3] 35.4 µM | [4] > 100 µM | [5] 10.5 µM | [6] 46.5 µM | [7] 44.9 µM | [8] 98.4 µM | [9] > 100 µM | [10] > 100 µM | [11] 48.6 µM | [12] > 100 µM | [13] 44.2 µM | [14] 75.3 µM | [15] 16.9 µM | [16] 73.6 µM

CC1(C)COC(c2ccc(C(F)(F)F)cc2C(O)c2ccc3ccccc3c2)=N1 (stereo not given)
inactive: [1] > 10 µM | [2] > 10 µM | [3] > 10 µM | [4] 64.4 µM | [5] > 10 µM | [6] > 10 µM | [7] 15.8 µM | [8] 51.3 µM | [9] 94.6 µM | [10] > 10 µM | [11] 28.9 µM | [12] > 10 µM | [13] > 10 µM | [14] > 10 µM | [15] > 10 µM | [16] 41.4 µM

Cc1ccccc1C(C#N)C(=O)C(=O)Nc1cccc(Cl)c1 (stereo not given)
inactive: [1] > 100 µM | [2] > 100 µM | [3] > 100 µM | [4] > 100 µM | [5] 58.3 µM | [6] 19.1 µM | [7] > 100 µM | [8] > 100 µM | [9] > 100 µM | [10] > 100 µM | [11] > 100 µM | [12] > 100 µM | [13] > 100 µM | [14] 61.5 µM | [15] 58.5 µM | [16] > 100 µM

CC1(C)OC(=O)C(c2cccs2)C(=O)O1
inactive: [1] > 100 µM | [2] > 100 µM | [3] > 100 µM | [4] > 100 µM | [5] > 100 µM | [6] > 100 µM | [7] > 100 µM | [8] > 100 µM | [9] > 100 µM | [10] > 100 µM | [11] > 100 µM | [12] > 100 µM | [13] > 100 µM | [14] > 100 µM | [15] > 100 µM | [16] > 100 µM

CN(c1n[n+]2c(-c3ccccc3)csc2s1)c1n[n+]2c(-c3ccccc3)csc2s1
inactive: [1] > 100 µM | [2] > 100 µM | [3] > 100 µM | [4] > 100 µM | [5] 46.7 µM | [6] > 100 µM | [7] > 100 µM | [8] > 100 µM | [10] > 100 µM | [11] > 100 µM | [12] > 100 µM | [13] > 100 µM | [14] > 100 µM | [15] 33.7 µM | [16] > 100 µM

COc1ccc(/C=C2\CCC(CCN(C)C)(C3=CCCC3)C2=O)cc1 (stereo not given)
inactive: [1] 16.9 µM | [2] 14.8 µM | [3] 16.8 µM | [4] 16.1 µM | [5] 12.8 µM | [6] 16.6 µM | [7] 19 µM | [8] 20.6 µM | [9] 10.7 µM | [10] 15.1 µM | [11] 29 µM | [12] 14 µM | [13] 18.6 µM | [14] 20.1 µM | [15] 16.1 µM | [16] 20.7 µM
